Assay results: paper PMC8490515, “Neuromedin B receptor stimulation of Cav3.2 T-type Ca^2+ channels in primary sensory neurons mediates peripheral pain hypersensitivity” (Theranostics, 2021)

What was measured:
[1] = system: nociception and neurogenic inflammation; conditions: application of Nmb; ref [4], [5]; cited from earlier work
Source text: It has been well established that T-type channels promote Ca^2+ entry that disrupts the resting membrane potential and can modulate neuronal activity in the peripheral and central nervous systems, thus improving transmission efficiency. In the peripheral sensory neurons this low activation threshold property of T-type channels typically results in the amplification of sensory signals, increased afferent sensory transmission and, in particular, increased pain perception, [74].

[2] = system: heat hypersensitivity in mice; assay: Heat test, head withdrawal latency (HWL); format: in vivo, mouse; conditions: intra-TG 1 nmol or 5 nmol
Protocol: For experiments that several time points are needed to be checked in 24 h, von Frey test was used, as orofacial stimulation test can be checked only once a day, [32]. For the von Frey test, the mice were placed in metal mesh boxes and allowed 30 min for habituation before examination. Mechanical hypersensitivity was assessed as described in previous studies, [33]. In brief, the threshold was assessed with a set of von Frey hairs (0.02-2.56 g, Stoelting) applied to the whisker pad in an ascending series of trials, with three separate von Frey stimulations applied per series. The threshold was determined when mice moved their heads away briskly and strongly from at least one of the three stimuli. Dixon's up-down method was used to determine the 50% probability of escape threshold. For thermal test, a heat stimulus was applied to the maxillary whisker pad skin by radiant heat (IITC Life Science). Heat sensitivity was expressed as head-withdrawal latency (HWL). The radiant heat intensity was adjusted so that basal HWL is between 10-15 s, with a cut-off of 18 s to prevent tissue damage. Chronic inflammatory pain was induced by subcutaneous injection of 20 μL of complete Freund's adjuvant (CFA) into the left side of the buccal pad. […]

[3] = system: high-voltage activated (HVA) Ca^2+ channels, L-type; assay: HVA / L-type Ca2+ channel currents in TG neurons; format: cell-based, mouse
Protocol: All the procedures performed in this study were carried out in accordance with NIH guidelines and were approved by the Institutional Animal Care and Use Committee of Soochow University. TG neurons were dissociated as previously described, [23]. Briefly, TGs were harvested from 8- to 10-week-old ICR mice of either sex, cut into small pieces and treated with 2 mg/mL collagenase D (Roche) for 20 min followed by 1.5 mg/mL trypsin (Sigma) at 37 °C for 15 min. Cells were dissociated via gentle trituration with fire-polished sterilized Pasteur pipettes and centrifuged through a 15% BSA gradient to remove debris and nonneuronal cells. TG neurons were resuspended in neurobasal A (Thermo Fisher) supplemented with B27 (Thermo Fisher) and transferred onto Matrigel-coated coverslips. Patch clamp recordings were conducted 2 to 6 h after plating. In shRNA-treated knockdown experiments, TG cells were replated onto coverslips 48 h after infection.
Standard whole-cell recordings were made at room temperature (22-23 °C) as described previously, [25]. Recording electrodes were pulled from borosilicate glass microcapillary tubes (Sutter Instruments) and had resistances from 3 to 5 MΩ when filled with internal solution. Recordings were obtained using a MultiClamp 700B amplifier (Axon Instruments). […]

PKA = PKA activity assay in TG cells (Pep Tag); format: cell-based, mouse; conditions: 100 nM Nmb, 30 min; triplicate
Protocol: PKA enzymatic activity in cell lysates was measured using the Pep Tag assay for nonradioactive detection of PKA (Promega, Madison, WI, USA) as described in our previous studies. Briefly, TG cells were cultured in 12-well plates and preincubated with BIM23042 (0.5 μM) or compound C (10 μM) followed by exposure to 100 nM Nmb for 30 min. TG cells were washed with ice-cold phosphate-buffered saline and placed on ice. PKA was extracted from the cell lysates with cold PKA extraction buffer (25 mM Tris-HCl, pH 7.4, 0.5 mM EDTA, 0.5 mM EGTA, 10 mM β-mercaptoethanol, 1 μg/mL leupeptin and 1 μg/mL aprotinin). The assay was conducted according to the manufacturer's instructions.

Substance: Neuromedin B [Nmb]
- pro-nociceptive effects of Nmb [1]: can induce pro-nociceptive effects
- head withdrawal latency effect, duration [2]: maintained at 3 h
- head withdrawal latency (HWL) ([2]; at 1 h): significantly decreased the head withdrawal latency
- decrease of L-type channel currents ([3]; 100 nM): 19.6 ± 2.2%
- decrease of remaining HVA Ca2+ channel currents ([3]; 100 nM Nmb with 5 μM nifedipine): 1.3 ± 0.6%
- PKA activity (PKA): increase in PKA activity
